Measurements published in patent publication US20080280862A1, “Methods, compositions, and kits for the treatment of pain” (priority 2007, published 2008).

Key:
[1] = test system: formalin-induced pain model in rats; experiment: Formalin pain model, nociceptive behaviors; assay type: in vivo, Sprague-Dawley rats
Summary of the method: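 Male Sprague-Dawley rats dosed intraperitoneally once daily on days −2 and −1 and 30 min before 2% formalin injection into the right hindpaw plantar surface. Lifting, licking and biting were timed by a blinded observer over 1 h, phase I and phase II, reported per 5-min period.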

TNFα = TNFα secretion by human white blood cells stimulated with PMA/ionomycin, synergy score; assay type: cell-based; conditions: PBMC stimulated with PMA/Ionomycin
Summary of the method: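 Diluted human white blood cells stimulated with 10 ng/mL PMA and 750 ng/mL ionomycin (final) plus compound combinations at various concentrations, 16-18 h at 37 °C. Secreted TNFα measured by sandwich luminescent ELISA; synergy score is the dilution-weighted volume between measured and Loewe additive inhibition surfaces.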

For `CNCCC=C1c2ccccc2CCc2ccccc21` [Nortriptyline], the “Mean number of behaviors per 5 minute block” value ([1]; Experiment One, nortriptyline, 1 mg/kg, 5 minutes) was 185.0 ± 30.0, the “Mean number of behaviors per 5 minute block” value ([1]; Experiment One, nortriptyline, 1 mg/kg, 10 minutes) was 26.0 ± 16.0 and the “Mean number of behaviors per 5 minute block” value ([1]; Experiment One, nortriptyline, 1 mg/kg, 15 minutes) was 16.0 ± 16.0. The “Mean number of behaviors per 5 minute block” value ([1]; Experiment One, nortriptyline, 1 mg/kg, 20 minutes) was 33.0 ± 22.0, the “Mean number of behaviors per 5 minute block” value ([1]; Experiment One, nortriptyline, 1 mg/kg, 25 minutes) was 124.0 ± 40.0 and the “Mean number of behaviors per 5 minute block” value ([1]; Experiment One, nortriptyline, 1 mg/kg, 30 minutes) was 170.0 ± 46.0. The “Mean number of behaviors per 5 minute block” value ([1]; Experiment One, nortriptyline, 1 mg/kg, 35 minutes) was 181.0 ± 47.0, the “Mean number of behaviors per 5 minute block” value ([1]; Experiment One, nortriptyline, 1 mg/kg, 40 minutes) was 168.0 ± 46.0 and the “Mean number of behaviors per 5 minute block” value ([1]; Experiment One, nortriptyline, 1 mg/kg, 45 minutes) was 176.0 ± 45.0. For the same compound, the “Mean number of behaviors per 5 minute block” value ([1]; Experiment One, nortriptyline, 1 mg/kg, 50 minutes) was 191.0 ± 42.0, the “Mean number of behaviors per 5 minute block” value ([1]; Experiment One, nortriptyline, 1 mg/kg, 55 minutes) was 165.0 ± 41.0 and the “Mean number of behaviors per 5 minute block” value ([1]; Experiment One, nortriptyline, 1 mg/kg, 60 minutes) was 89.0 ± 34.0. For the same compound, the “Mean number of behaviors per 5 minute block” value ([1]; Experiment One, nortriptyline, 3 mg/kg, 5 minutes) was 248.0 ± 10.6, the “Mean number of behaviors per 5 minute block” value ([1]; Experiment One, nortriptyline, 3 mg/kg, 10 minutes) was 36.0 ± 12.0 and the “Mean number of behaviors per 5 minute block” value ([1]; Experiment One, nortriptyline, 3 mg/kg, 15 minutes) was 87.0 ± 32.8. The “Mean number of behaviors per 5 minute block” value ([1]; Experiment One, nortriptyline, 3 mg/kg, 20 minutes) was 159.0 ± 39.7, the “Mean number of behaviors per 5 minute block” value ([1]; Experiment One, nortriptyline, 3 mg/kg, 25 minutes) was 182.0 ± 36.3 and the “Mean number of behaviors per 5 minute block” value ([1]; Experiment One, nortriptyline, 3 mg/kg, 30 minutes) was 231.0 ± 32.4. For the same compound, the “Mean number of behaviors per 5 minute block” value ([1]; Experiment One, nortriptyline, 3 mg/kg, 35 minutes) was 253.0 ± 30.7, the “Mean number of behaviors per 5 minute block” value ([1]; Experiment One, nortriptyline, 3 mg/kg, 40 minutes) was 253.0 ± 30.8 and the “Mean number of behaviors per 5 minute block” value ([1]; Experiment One, nortriptyline, 3 mg/kg, 45 minutes) was 258.0 ± 28.3. For the same compound, the “Mean number of behaviors per 5 minute block” value ([1]; Experiment One, nortriptyline, 3 mg/kg, 50 minutes) was 212.0 ± 28.3, the “Mean number of behaviors per 5 minute block” value ([1]; Experiment One, nortriptyline, 3 mg/kg, 55 minutes) was 136.0 ± 40.3 and the “Mean number of behaviors per 5 minute block” value ([1]; Experiment One, nortriptyline, 3 mg/kg, 60 minutes) was 94.0 ± 41.7. For the same compound, the “Mean number of behaviors per 5 minute block” value ([1]; Experiment One, nortriptyline, 10 mg/kg, 5 minutes) was 227.0 ± 19.3, the “Mean number of behaviors per 5 minute block” value ([1]; Experiment One, nortriptyline, 10 mg/kg, 10 minutes) was 30.0 ± 18.2 and the “Mean number of behaviors per 5 minute block” value ([1]; Experiment One, nortriptyline, 10 mg/kg, 15 minutes) was 11.0 ± 6.1. For the same compound, the “Mean number of behaviors per 5 minute block” value ([1]; Experiment One, nortriptyline, 10 mg/kg, 20 minutes) was 39.0 ± 29.4, the “Mean number of behaviors per 5 minute block” value ([1]; Experiment One, nortriptyline, 10 mg/kg, 25 minutes) was 62.0 ± 38.5 and the “Mean number of behaviors per 5 minute block” value ([1]; Experiment One, nortriptyline, 10 mg/kg, 30 minutes) was 60.0 ± 34.4. For the same compound, the “Mean number of behaviors per 5 minute block” value ([1]; Experiment One, nortriptyline, 10 mg/kg, 35 minutes) was 99.0 ± 43.0, the “Mean number of behaviors per 5 minute block” value ([1]; Experiment One, nortriptyline, 10 mg/kg, 40 minutes) was 109.0 ± 44.0 and the “Mean number of behaviors per 5 minute block” value ([1]; Experiment One, nortriptyline, 10 mg/kg, 45 minutes) was 122.0 ± 43.2. For the same compound, the “Mean number of behaviors per 5 minute block” value ([1]; Experiment One, nortriptyline, 10 mg/kg, 50 minutes) was 96.0 ± 39.1, the “Mean number of behaviors per 5 minute block” value ([1]; Experiment One, nortriptyline, 10 mg/kg, 55 minutes) was 140.0 ± 42.6 and the “Mean number of behaviors per 5 minute block” value ([1]; Experiment One, nortriptyline, 10 mg/kg, 60 minutes) was 180.0 ± 40.3. For the same compound, the “Mean number of behaviors per 5 minute block” value ([1]; Experiment One, nortriptyline, 20 mg/kg, 5 minutes) was 158.0 ± 31.6, the “Mean number of behaviors per 5 minute block” value ([1]; Experiment One, nortriptyline, 20 mg/kg, 10 minutes) was 21.0 ± 12.8 and the “Mean number of behaviors per 5 minute block” value ([1]; Experiment One, nortriptyline, 20 mg/kg, 15 minutes) was 0.0 ± 0.0. The “Mean number of behaviors per 5 minute block” value ([1]; Experiment One, nortriptyline, 20 mg/kg, 20 minutes) was 9.0 ± 8.8, the “Mean number of behaviors per 5 minute block” value ([1]; Experiment One, nortriptyline, 20 mg/kg, 25 minutes) was 30.0 ± 30.0 and the “Mean number of behaviors per 5 minute block” value ([1]; Experiment One, nortriptyline, 20 mg/kg, 30 minutes) was 36.0 ± 29.9. For the same compound, the “Mean number of behaviors per 5 minute block” value ([1]; Experiment One, nortriptyline, 20 mg/kg, 35 minutes) was 33.0 ± 29.2, the “Mean number of behaviors per 5 minute block” value ([1]; Experiment One, nortriptyline, 20 mg/kg, 40 minutes) was 29.0 ± 29.3 and the “Mean number of behaviors per 5 minute block” value ([1]; Experiment One, nortriptyline, 20 mg/kg, 45 minutes) was 33.0 ± 26.9. For the same compound, the “Mean number of behaviors per 5 minute block” value ([1]; Experiment One, nortriptyline, 20 mg/kg, 50 minutes) was 46.0 ± 28.2, the “Mean number of behaviors per 5 minute block” value ([1]; Experiment One, nortriptyline, 20 mg/kg, 55 minutes) was 47.0 ± 29.4 and the “Mean number of behaviors per 5 minute block” value ([1]; Experiment One, nortriptyline, 20 mg/kg, 60 minutes) was 68.0 ± 37.6. The “Mean number of behaviors per 5 minute block” value ([1]; Experiment Two, 1 mg/kg, 5 minutes) was 232.0 ± 16.5, the “Mean number of behaviors per 5 minute block” value ([1]; Experiment Two, 1 mg/kg, 10 minutes) was 13.0 ± 4.9 and the “Mean number of behaviors per 5 minute block” value ([1]; Experiment Two, 1 mg/kg, 15 minutes) was 27.0 ± 16.8. For the same compound, the “Mean number of behaviors per 5 minute block” value ([1]; Experiment Two, 1 mg/kg, 20 minutes) was 113.0 ± 44.2, the “Mean number of behaviors per 5 minute block” value ([1]; Experiment Two, 1 mg/kg, 25 minutes) was 165.0 ± 45.1 and the “Mean number of behaviors per 5 minute block” value ([1]; Experiment Two, 1 mg/kg, 30 minutes) was 234.0 ± 26.3. For the same compound, the “Mean number of behaviors per 5 minute block” value ([1]; Experiment Two, 1 mg/kg, 35 minutes) was 270.0 ± 10.6, the “Mean number of behaviors per 5 minute block” value ([1]; Experiment Two, 1 mg/kg, 40 minutes) was 281.0 ± 10.4 and the “Mean number of behaviors per 5 minute block” value ([1]; Experiment Two, 1 mg/kg, 45 minutes) was 287.0 ± 5.5. For the same compound, the “Mean number of behaviors per 5 minute block” value ([1]; Experiment Two, 1 mg/kg, 50 minutes) was 266.0 ± 16.6, the “Mean number of behaviors per 5 minute block” value ([1]; Experiment Two, 1 mg/kg, 55 minutes) was 192.0 ± 38.3 and the “Mean number of behaviors per 5 minute block” value ([1]; Experiment Two, 1 mg/kg, 60 minutes) was 170.0 ± 46.6. The “Mean number of behaviors per 5 minute block” value ([1]; Experiment Two, 3 mg/kg, 5 minutes) was 228.0 ± 25.1, the “Mean number of behaviors per 5 minute block” value ([1]; Experiment Two, 3 mg/kg, 10 minutes) was 28.0 ± 12.3 and the “Mean number of behaviors per 5 minute block” value ([1]; Experiment Two, 3 mg/kg, 15 minutes) was 10.0 ± 6.2. For the same compound, the “Mean number of behaviors per 5 minute block” value ([1]; Experiment Two, 3 mg/kg, 20 minutes) was 96.0 ± 43.8, the “Mean number of behaviors per 5 minute block” value ([1]; Experiment Two, 3 mg/kg, 25 minutes) was 162.0 ± 44.0 and the “Mean number of behaviors per 5 minute block” value ([1]; Experiment Two, 3 mg/kg, 30 minutes) was 200.0 ± 45.0. The “Mean number of behaviors per 5 minute block” value ([1]; Experiment Two, 3 mg/kg, 35 minutes) was 217.0 ± 47.8, the “Mean number of behaviors per 5 minute block” value ([1]; Experiment Two, 3 mg/kg, 40 minutes) was 216.0 ± 47.3 and the “Mean number of behaviors per 5 minute block” value ([1]; Experiment Two, 3 mg/kg, 45 minutes) was 220.0 ± 48.1. For the same compound, the “Mean number of behaviors per 5 minute block” value ([1]; Experiment Two, 3 mg/kg, 50 minutes) was 224.0 ± 42.0, the “Mean number of behaviors per 5 minute block” value ([1]; Experiment Two, 3 mg/kg, 55 minutes) was 247.0 ± 36.2 and the “Mean number of behaviors per 5 minute block” value ([1]; Experiment Two, 3 mg/kg, 60 minutes) was 188.0 ± 36.8. For the same compound, the “Synergy Score based on TNF-α inhibition” value (TNFα; combination with Betamethasone) was 0.83, the “Synergy Score based on TNF-α inhibition” value (TNFα; combination with Budesonide) was 1.6 and the “Synergy Score based on TNF-α inhibition” value (TNFα; combination with Dexamethasone) was 1.7. The “Synergy Score based on TNF-α inhibition” value (TNFα; combination with Hydrocortisone) was 0.72, the “Synergy Score based on TNF-α inhibition” value (TNFα; combination with Prednisolone) was 1.1 and the “Synergy Score based on TNF-α inhibition” value (TNFα; combination with Triamcinolone) was 0.88.
